Measured values: the supplement of paper PMC10307832

How the values were obtained:
Test in all cases: relative viability (nuclei count vs DMSO), 5 days (fraction); higher = more cells survive
Olaparib + Luminespib = compound: O=C(c1cc(Cc2n[nH]c(=O)c3ccccc23)ccc1F)N1CCN(C(=O)C2CC2)CC1 [Olaparib] + CCNC(=O)c1noc(-c2cc(C(C)C)c(O)cc2O)c1-c1ccc(CN2CCOCC2)cc1 [Luminespib] (partner 0.01 µM)
Summary of the method: (§1)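 One day after seeding in 1536-well plates, lung cancer cell lines were dosed by pin tool. Dosing was either single-drug or a fixed anchor-drug dose plus five library-drug doses (not always all listed) in √10 steps. After 5 days, nuclei were stained in one fix-and-stain step and counted on 4× images, and relative viability is the nuclei count of treated wells over that of vehicle wells, given as the median of duplicate plates.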

Crizotinib + AZD7762 = compound: C[C@@H](Oc1cc(-c2cnn(C3CCNCC3)c2)cnc1N)c1c(Cl)ccc(F)c1Cl [Crizotinib] + NC(=O)Nc1cc(-c2cccc(F)c2)sc1C(=O)N[C@H]1CCCNC1 [AZD7762] (partner 0.2 µM)
Summary of the method: as §1

Crizotinib + Alpelisib = compound: C[C@@H](Oc1cc(-c2cnn(C3CCNCC3)c2)cnc1N)c1c(Cl)ccc(F)c1Cl [Crizotinib] + Cc1nc(NC(=O)N2CCC[C@H]2C(N)=O)sc1-c1ccnc(C(C)(C)C(F)(F)F)c1 [Alpelisib] (partner 2 µM)
Summary of the method: as §1

Olaparib + Trametinib = compound: O=C(c1cc(Cc2n[nH]c(=O)c3ccccc23)ccc1F)N1CCN(C(=O)C2CC2)CC1 [Olaparib] + CC(=O)Nc1cccc(-n2c(=O)n(C3CC3)c(=O)c3c(Nc4ccc(I)cc4F)n(C)c(=O)c(C)c32)c1 [Trametinib] (partner 0.02 µM)
Summary of the method: as §1

Cell Line | relative viability (Olaparib + Luminespib; first compound 0.08 µM) | relative viability (Olaparib + Luminespib; first compound 0.253 µM) | relative viability (Olaparib + Luminespib; first compound 2.53 µM) | relative viability (Olaparib + Luminespib; first compound 8 µM) | relative viability (Crizotinib + AZD7762; first compound 0.01 µM) | relative viability (Crizotinib + AZD7762; first compound 0.03162 µM) | relative viability (Crizotinib + AZD7762; first compound 0.1 µM) | relative viability (Crizotinib + AZD7762; first compound 0.3162 µM) | relative viability (Crizotinib + AZD7762; first compound 1 µM) | relative viability (Crizotinib + Alpelisib; first compound 0.01 µM) | relative viability (Crizotinib + Alpelisib; first compound 0.03162 µM) | relative viability (Crizotinib + Alpelisib; first compound 0.1 µM) | relative viability (Crizotinib + Alpelisib; first compound 0.3162 µM) | relative viability (Crizotinib + Alpelisib; first compound 1 µM) | relative viability (Olaparib + Trametinib; first compound 0.08 µM) | relative viability (Olaparib + Trametinib; first compound 0.253 µM) | relative viability (Olaparib + Trametinib; first compound 2.53 µM) | relative viability (Olaparib + Trametinib; first compound 8 µM)
NCI-H1395 | 0.633 | 0.533 | 0.62 | 0.447 | 0.381 | 0.372 | 0.429 | 0.43 | 0.397 | 0.996 | 0.928 | 1.09 | 1.11 | 1.26 | 1.11 | 0.876 | 0.852 | 0.629
NCI-H1437 | 1.26 | 1.08 | 1.06 | 0.809 | 1.03 | 1.13 | 1.09 | 1.13 | 1.09 | 0.869 | 0.973 | 0.925 | 0.938 | 0.907 | 0.535 | 0.469 | 0.503 | 0.504
NCI-H1651 | 0.798 | 0.605 | 0.431 | 0.216 | 0.438 | 0.472 | 0.409 | 0.483 | 0.463 | 0.823 | 0.933 | 0.858 |  | 0.965 | 0.849 | 0.75 | 0.642 | 0.504
NCI-H1666 | 1.1 | 0.879 | 0.889 | 0.697 | 0.78 | 0.899 | 0.828 | 0.825 |  | 0.964 |  | 1 | 0.984 | 0.959 | 0.872 | 0.95 | 0.791 | 0.765
NCI-H1734 | 0.212 | 0.205 | 0.185 | 0.183 | 0.51 | 0.509 | 0.553 |  | 0.616 | 0.659 | 0.646 | 0.661 |  | 0.633 | 0.688 | 0.583 | 0.718 | 0.565
NCI-H1755 | 0.743 | 0.411 | 0.41 | 0.418 | 0.407 | 0.423 | 0.539 | 0.411 | 0.455 | 0.899 | 0.844 | 0.938 | 0.902 | 0.959 | 0.728 | 0.738 | 0.784 | 0.725
NCI-H1792 | 0.484 | 0.359 | 0.409 | 0.425 | 0.634 | 0.881 | 0.626 |  | 0.63 | 0.627 | 0.789 | 0.658 | 0.663 | 0.726 | 0.461 | 0.448 | 0.382 | 0.398
NCI-H1915 | 0.685 | 0.575 | 0.408 | 0.387 | 0.66 | 0.682 | 0.739 | 0.694 | 0.704 | 1.08 | 1.08 | 1.14 |  | 1.09 | 0.278 | 0.285 | 0.261 | 0.206
NCI-H1944 | 0.741 | 0.625 | 0.534 | 0.534 | 0.449 | 0.566 | 0.53 | 0.446 | 0.489 | 0.787 |  | 0.804 | 0.808 | 0.861 | 0.435 | 0.376 | 0.372 | 0.328
